{"source": "patent US8586110B2", "about": "“Therapeutic composition produced using Camellia sinensis leaves and hydrogen peroxide” (LiveLeaf, Inc., priority 2007, dated 2013)", "tested_on": "wild strain E-Coli", "test": "E-Coli culture turbidity over time (Experiment 4)", "assay_type": "cell-based", "conditions": "25 ppm hydrogen peroxide or equivalent concentration", "description": "A wild strain E-Coli culture was added to three samples. The sample A contained 25 ppm hydrogen peroxide in water. The sample B contained a solution of Formulation A diluted to equivalent 25 ppm hydrogen peroxide fraction. The sample C contained a solution having a green tea extract of the same concentration of Formulation A but without hydrogen peroxide."}
{"compound": "OO", "note": "[hydrogen peroxide]", "values": [{"measurement": "antimicrobial effect on bacteria population (visual turbidity)", "result": "initially reduced but began to exhibit increased visual turbidity after 16 hours"}]}
